One may read the IC50 as the concentration at which inhibition is half-maximal.

Bounds are passed on as bounds.

Experiment [1] relates to 85 serine hydrolases. Conditions: 33.3 μM to 10 nM; semiquantitative.
In experiment [2] the target is low molecular weight human uPA (Homo sapiens, UniProt P00749). The experiment is described as follows: Fluorometric uPA activity assay. The experiment is classed as biochemical. Conditions: relative to HMA 5.
Experiment [3] deals with AsPC-1 human pancreatic cancer cells + human pancreatic stellate cells. The experiment in a line: Orthotopic xenograft mouse model of pancreatic cancer. Conditions: for liver metastases: 18 or 26 10 mg/kg ip daily for 28 days, compared to gemcitabine.
Experiment [4] concerns the target Mouse uPA (active mouse urokinase, HMW) (Mus musculus, UniProt P06869).
Experiment [5] concerns the target uPA (Homo sapiens, UniProt P00749). The experiment in a line: EnPlex activity-based protein profiling, uPA. Conditions: 33.3 μM to 10 nM; semiquantitative.
Experiment [6] deals with Trypsin. The experiment is described as follows: Chromogenic TLSP activity assay, trypsin. The experiment is classed as biochemical. Conditions: read-out: Trypsin IC50; chromogenic enzyme inhibition assay.
In experiment [7] the target is human ENaCs (α, β, and γ subunits) (Homo sapiens, UniProt P37088+P51168+P51170). The experiment is described as follows: ENaC inhibition assay. The experiment is classed as cell-based. The settings on record: 10 μM compound; transfected HEK-293 cells.
human ENaCs (α, β, and γ subunits), sequence (P51170 whole entry): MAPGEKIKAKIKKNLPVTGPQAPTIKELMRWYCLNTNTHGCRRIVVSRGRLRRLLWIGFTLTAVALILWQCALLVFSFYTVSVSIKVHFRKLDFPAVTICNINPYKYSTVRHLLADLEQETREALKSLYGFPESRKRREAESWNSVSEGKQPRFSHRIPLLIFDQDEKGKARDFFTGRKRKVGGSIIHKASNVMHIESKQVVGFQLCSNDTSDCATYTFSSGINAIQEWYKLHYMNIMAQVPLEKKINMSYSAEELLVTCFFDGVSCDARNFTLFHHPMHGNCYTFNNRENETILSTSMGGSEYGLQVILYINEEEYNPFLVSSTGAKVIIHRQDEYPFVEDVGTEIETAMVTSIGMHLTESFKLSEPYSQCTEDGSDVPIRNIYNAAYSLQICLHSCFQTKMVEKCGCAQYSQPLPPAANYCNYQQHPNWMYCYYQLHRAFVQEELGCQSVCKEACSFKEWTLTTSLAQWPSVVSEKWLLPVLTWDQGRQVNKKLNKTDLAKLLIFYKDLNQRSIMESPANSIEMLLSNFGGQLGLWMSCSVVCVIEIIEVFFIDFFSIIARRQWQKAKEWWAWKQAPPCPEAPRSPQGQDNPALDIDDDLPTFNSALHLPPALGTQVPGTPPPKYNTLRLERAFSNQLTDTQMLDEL
human ENaCs (α, β, and γ subunits), sequence (P37088 whole entry): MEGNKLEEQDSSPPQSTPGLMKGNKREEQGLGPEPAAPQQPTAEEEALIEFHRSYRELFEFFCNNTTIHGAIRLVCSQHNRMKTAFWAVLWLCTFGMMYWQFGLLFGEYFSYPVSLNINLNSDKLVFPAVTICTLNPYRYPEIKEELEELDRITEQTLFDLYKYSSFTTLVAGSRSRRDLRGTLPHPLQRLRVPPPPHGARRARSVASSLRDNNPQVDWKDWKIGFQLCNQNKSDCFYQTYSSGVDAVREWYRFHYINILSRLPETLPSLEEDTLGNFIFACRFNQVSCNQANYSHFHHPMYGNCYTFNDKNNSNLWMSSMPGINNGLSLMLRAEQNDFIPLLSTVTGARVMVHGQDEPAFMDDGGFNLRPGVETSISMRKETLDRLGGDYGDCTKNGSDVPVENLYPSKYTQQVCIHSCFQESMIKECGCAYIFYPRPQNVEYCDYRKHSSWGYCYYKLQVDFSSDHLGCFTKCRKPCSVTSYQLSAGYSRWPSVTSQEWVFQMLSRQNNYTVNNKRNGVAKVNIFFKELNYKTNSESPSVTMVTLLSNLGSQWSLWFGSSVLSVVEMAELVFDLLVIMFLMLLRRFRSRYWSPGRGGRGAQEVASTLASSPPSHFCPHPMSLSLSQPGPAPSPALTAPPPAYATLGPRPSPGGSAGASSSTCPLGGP
human ENaCs (α, β, and γ subunits), sequence (P51168 whole entry): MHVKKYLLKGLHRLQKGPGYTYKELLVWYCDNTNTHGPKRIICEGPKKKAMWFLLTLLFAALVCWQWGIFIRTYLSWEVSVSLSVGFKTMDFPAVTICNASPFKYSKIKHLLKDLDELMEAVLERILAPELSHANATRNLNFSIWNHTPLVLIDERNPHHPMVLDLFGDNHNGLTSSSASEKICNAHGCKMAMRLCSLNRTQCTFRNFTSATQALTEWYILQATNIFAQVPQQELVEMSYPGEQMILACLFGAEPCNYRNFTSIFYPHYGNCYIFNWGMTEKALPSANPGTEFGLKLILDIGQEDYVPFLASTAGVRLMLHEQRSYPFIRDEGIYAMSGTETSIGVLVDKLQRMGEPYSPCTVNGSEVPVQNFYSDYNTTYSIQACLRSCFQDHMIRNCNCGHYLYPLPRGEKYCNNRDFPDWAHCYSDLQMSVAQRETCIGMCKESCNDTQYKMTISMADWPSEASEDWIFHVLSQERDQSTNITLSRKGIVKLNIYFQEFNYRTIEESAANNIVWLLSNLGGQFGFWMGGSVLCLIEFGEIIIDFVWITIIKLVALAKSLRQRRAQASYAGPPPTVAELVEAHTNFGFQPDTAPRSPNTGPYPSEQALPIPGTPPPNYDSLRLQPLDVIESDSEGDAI

Mouse uPA (active mouse urokinase, HMW), sequence (P06869 180-433 limits assumed): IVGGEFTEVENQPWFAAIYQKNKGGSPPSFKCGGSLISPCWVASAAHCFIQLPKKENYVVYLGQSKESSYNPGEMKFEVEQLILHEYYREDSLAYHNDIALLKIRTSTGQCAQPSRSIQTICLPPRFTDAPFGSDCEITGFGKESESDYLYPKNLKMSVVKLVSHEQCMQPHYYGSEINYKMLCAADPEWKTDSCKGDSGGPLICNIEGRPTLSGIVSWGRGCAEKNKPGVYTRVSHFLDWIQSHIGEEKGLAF
Mouse uPA (active mouse urokinase, HMW), sequence (P06869 21-178 partner limits assumed): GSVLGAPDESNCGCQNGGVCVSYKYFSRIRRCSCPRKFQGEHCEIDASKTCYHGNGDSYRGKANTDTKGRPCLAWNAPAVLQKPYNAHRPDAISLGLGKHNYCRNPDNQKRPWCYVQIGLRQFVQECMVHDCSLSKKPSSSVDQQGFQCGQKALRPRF

`N=C(N)NC(=O)c1nc(-c2cncnc2)c(N2CCCCCC2)nc1N` [Compound 25, 3-Amino-5-(azepan-1-yl)-N-carbamimidoyl-6-(pyrimidin-5-yl)pyrazine-2-carboxamide]: in experiment [1], the “serine hydrolases inhibited in EnPlex screen” value (shortened to “serine hydrolases inhibited”) is listed as “slight inhibition of trypsin being the only off-target TLSP activity observed”. In experiment [2], the “increase in uPA potency relative to HMA” value is reported as ~ 12.6 fold.

For the compound `Cn1cc(-c2nc(C(=O)NC(=N)N)c(N)nc2N2CCCCCC2)cn1` [Compound 14, 3-Amino-5-(azepan-1-yl)-N-carbamimidoyl-6-(1-methyl-1H-pyrazol-4-yl)pyrazine-2-carboxamide], the “increase in uPA potency relative to HMA” value in experiment [2] was ~ 2.7 fold.

In the case of `Nc1ccn([C@@H]2O[C@H](CO)[C@@H](O)C2(F)F)c(=O)n1` [gemcitabine, reference compound], in experiment [3] (gemcitabine 75 mg/kg po twice weekly, 18 or 26 10 mg/kg ip daily, 28 days), the “effect on end point primary tumor volume” value is “only modest inhibitory effects”.

As for `COc1ncc(-c2nc(C(=O)NC(=N)N)c(N)nc2N2CCCCCC2)cn1` [Compound 26, 3-Amino-5-(azepan-1-yl)-N-carbamimidoyl-6-(2-methoxypyrimidin-5-yl)pyrazine-2-carboxamide], the “decrease in affinity for mouse uPA versus human uPA” value (“decrease in affinity” for short) in experiment [4] is listed as 10- to 30 fold. In experiment [1], the “serine hydrolases inhibited” value was “slight activity against C1s, plasma kallikrein, plasmin, prolylcarboxy peptidase, trypsin, and transmembrane protease serine 11D (TMPRSS11d)”. The liver metastases result in experiment [3] is “no macroscopic metastatic lesions observed”.

In the case of `N=C(N)NC(=O)c1nc(-c2cncc3ccccc23)c(N2CCCCCC2)nc1N` [Compound 13, 3-Amino-5-(azepan-1-yl)-N-carbamimidoyl-6-(isoquinolin-4-yl)pyrazine-2-carboxamide], the “decrease in uPA potency relative to HMA” value in experiment [2] is about 3 fold.

For the compound `N=C(N)NC(=O)c1nc(-c2ccccc2)c(N2CCCCCC2)nc1N` [Compound 9], in experiment [2], the “decrease in uPA potency relative to HMA” value is reported as ~ 3.7 fold.

In the case of `N=C(N)NC(=O)c1nc(Cl)c(N2CCCCCC2)nc1N` [Compound 5, 5-N,N-(hexamethylene)amiloride, reference compound], in experiment [4], the “decrease in affinity” value is reported as about 7 fold. Moreover, in experiment [5], the “inhibitory activity against uPA in EnPlex screen” value is on record as “not observed”. Further, the “serine hydrolases inhibited” value in experiment [1] was “activity against the highly homologous S28 protease family members dipeptidyl peptidase 2 (DPP7) and prolylcarboxypeptidase (PRCP)”. Moreover, in experiment [6], the 50% inhibitory concentration (IC50) was over 10 µM. Moreover, the “inhibition of ENaC” value in experiment [7] is “greatly reduced activity”.

As to `N=C(N)NC(=O)c1nc(-c2cc3ccccc3o2)c(N2CCCCCC2)nc1N` [Compound 18, 3-Amino-5-(azepan-1-yl)-6-(benzofuran-2-yl)-N-carbamimidoylpyrazine-2-carboxamide], in experiment [4], the “decrease in affinity” value is recorded as 10- to 30 fold. In addition, the “serine hydrolases inhibited” value in experiment [1] was “inhibiting plasma kallikrein (KLKb1) and trypsin”. Further, the IC50 in experiment [6] is over 10 µM. Further, the liver metastases result in experiment [3] is reported as “reduced”.

With `N=C(N)NC(=O)c1nc(-c2ccco2)c(N2CCCCCC2)nc1N` [Compound 22, 3-Amino-5-(azepan-1-yl)-N-carbamimidoyl-6-(furan-2-yl)-pyrazine-2-carboxamide], the “increase in uPA potency relative to HMA” value in experiment [2] is recorded as ~ 8.7 fold.

The record behind these values is paper PMC6290913 (Journal of medicinal chemistry, 2018).
